Where a SMILES comes first, the peptide text is derived from it. The star is where a group is joined. Octanoyl = CCCCCCCC(=O)*; Boc = CC(C)(C)OC(=O)*
Each molecule was assayed on SARS-CoV-2 (assay: Antiviral activity against SARS-CoV-2 Wuhan 5-2N variant infected in African green monkey Vero E6 cells measured for 3 days by WST-8 assay). Settings: Severe acute respiratory syndrome coronavirus 2, Wuhan 5-2N, Vero C1008, 72 h.
Type: functional, organism-based

Structure (SMILES)	EC50 [µM]
CCCCCCCC(=O)NCC(=O)N[C@@H](Cc1ccccc1)C(=O)N[C@H](C=O)Cc1c[nH]cn1 (Octanoyl-Gly-Phe-His-aldehyde)	5
CC(=O)NCC(=O)N[C@@H](Cc1ccccc1)C(=O)N[C@H](C=O)Cc1c[nH]cn1 (Ac-Gly-Phe-His-aldehyde)	66.1
CC(C)(C)OC(=O)NCC(=O)N[C@@H](Cc1ccccc1)C(=O)N[C@H](C=O)Cc1c[nH]cn1 (Boc-Gly-Phe-His-aldehyde)	5

— ChEMBL document CHEMBL6120938, “Covalent small-molecule inhibitors of SARS-CoV-2 Mpro: Insights into their design, classification, biological activity, and binding interactions” (Eur J Med Chem, 2024)
